The structures appear in SMILES notation.

The assay deals with T1, USP25 (USP25-His6, Boston Biochem E-546) (Homo sapiens, UniProt Q9UHP3).
T1 construct: His6; purchased Boston Biochem E-546
T1 sequence (Q9UHP3 1-1055): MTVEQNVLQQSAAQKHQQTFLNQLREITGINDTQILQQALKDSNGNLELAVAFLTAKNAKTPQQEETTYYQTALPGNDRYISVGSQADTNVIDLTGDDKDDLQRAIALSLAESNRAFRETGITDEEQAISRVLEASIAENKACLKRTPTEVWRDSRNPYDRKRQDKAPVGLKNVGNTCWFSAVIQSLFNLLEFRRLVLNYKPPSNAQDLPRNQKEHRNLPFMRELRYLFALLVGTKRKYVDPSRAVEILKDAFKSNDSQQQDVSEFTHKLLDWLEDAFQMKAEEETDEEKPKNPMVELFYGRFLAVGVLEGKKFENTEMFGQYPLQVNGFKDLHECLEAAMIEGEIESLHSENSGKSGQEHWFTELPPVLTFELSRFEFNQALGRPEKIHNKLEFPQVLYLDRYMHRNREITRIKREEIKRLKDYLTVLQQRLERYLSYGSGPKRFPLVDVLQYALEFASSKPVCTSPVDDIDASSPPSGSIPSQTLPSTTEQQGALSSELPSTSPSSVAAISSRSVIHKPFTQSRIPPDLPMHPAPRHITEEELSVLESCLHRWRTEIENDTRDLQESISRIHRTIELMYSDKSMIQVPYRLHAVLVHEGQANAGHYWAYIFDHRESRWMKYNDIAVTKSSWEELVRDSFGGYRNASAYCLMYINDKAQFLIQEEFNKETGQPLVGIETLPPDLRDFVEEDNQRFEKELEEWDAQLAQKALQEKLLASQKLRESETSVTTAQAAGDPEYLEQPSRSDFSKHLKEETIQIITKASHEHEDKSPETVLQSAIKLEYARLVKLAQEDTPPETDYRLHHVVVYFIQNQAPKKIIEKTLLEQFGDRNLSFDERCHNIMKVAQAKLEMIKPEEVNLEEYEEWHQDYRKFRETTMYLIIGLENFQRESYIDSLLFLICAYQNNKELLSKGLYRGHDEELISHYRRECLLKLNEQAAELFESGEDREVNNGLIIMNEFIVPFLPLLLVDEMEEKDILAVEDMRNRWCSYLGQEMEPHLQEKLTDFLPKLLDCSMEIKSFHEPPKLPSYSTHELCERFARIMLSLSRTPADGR
In words: Ubiquitin-Rhodamine 110 Assay for USP25 Activity, Example A-2. The assay is classed as biochemical. To be noted: Ubiquitin-Rhodamine 110 assay, Example A-2; read-out: USP25 A-2 IC50 range. An outline of the steps:
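Read-out: Rh110 fluorescence (ex 485, em 535 nm) after 45 min RT turnover of 25 nM Ub-Rh110 by 75 pM USP25-His6, quenched with 10 mM citric acid. Compounds at 25 μM–1.3 nM, preincubated 30 min with enzyme. IC50 from 4-parameter logistic fit.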
For `CCOC[C@H]1CN(c2ccc3c(c2)OC[C@H](NC(=O)c2sc4nc(C)ccc4c2N)C3)C[C@H]1N` [Example 314, 3-amino-N-[(3R)-7-[(3S,4S)-3-amino-4-(ethoxymethyl)pyrrolidin-1-yl]-3,4-dihydro-2H-1-benzopyran-3-yl]-6-methylthieno[2,3-b]pyridine-2-carboxamide], the IC50 lay in the range of 50 to 200 nM.

As to `CO[C@H]1CN(c2ccc3c(n2)CC[C@H](NC(=O)c2sc4nc(C)ccc4c2N)C3)C[C@H]1N` [Example 270, 3-amino-N-[(6S)-2-[(3R,4S)-3-amino-4-methoxypyrrolidin-1-yl]-5,6,7,8-tetrahydroquinolin-6-yl]-6-methylthieno[2,3-b]pyridine-2-carboxamide], the IC50 was over 2000 nM.

Regarding `Cc1ccc2c(N)c(C(=O)N[C@H]3CCc4nc(N5C[C@@H]6NCCC(F)(F)[C@@H]6C5)ccc4C3)sc2n1` [Example 330, N-[(6S)-2-[(4aR,7aR)-4,4-difluoro-octahydro-1H-pyrrolo[3,4-b]pyridin-6-yl]-5,6,7,8-tetrahydroquinolin-6-yl]-3-amino-6-methylthieno[2,3-b]pyridine-2-carboxamide], the IC50 is over 2000 nM.

Turning to `COC[C@]1(C)CN(c2ccc3c(n2)CC[C@H](NC(=O)c2sc4nc(C)ccc4c2N)C3)C[C@@H]1N` [Example 342, 3-amino-N-[(6S)-2-[(3R,4R)-4-amino-3-(methoxymethyl)-3-methylpyrrolidin-1-yl]-5,6,7,8-tetrahydroquinolin-6-yl]-6-methylthieno[2,3-b]pyridine-2-carboxamide], the IC50 was in the range of 200 to 2000 nM.

Consider `COC[C@@H]1CN(c2ccc3c(n2)CC[C@H](NC(=O)c2sc4nc(C)cc(C)c4c2N)C3)C[C@@H]1N` [Example 296, 3-amino-N-[(6S)-2-[(3R,4R)-3-amino-4-(methoxymethyl)pyrrolidin-1-yl]-5,6,7,8-tetrahydroquinolin-6-yl]-4,6-dimethylthieno[2,3-b]pyridine-2-carboxamide-], for which the IC50 was over 2000 nM.

`CO[C@@H]1CCN(c2ccc3c(c2)OC[C@H](NC(=O)c2sc4nc(C)cc(C)c4c2N)C3)C[C@H]1N` [Example 318, 3-amino-N-[(3R)-7-[(3R,4R)-3-amino-4-methoxypiperidin-1-yl]-3,4-dihydro-2H-1-benzopyran-3-yl]-4,6-dimethylthieno[2,3-b]pyridine-2-carboxamide]: the IC50 lay within 200 to 2000 nM.

`CO[C@H]1CN(c2ccc3c(n2)CC[C@H](NC(=O)c2sc4nc(C)cnc4c2N)C3)C[C@@H]1NC(C)=O` [Example 266, 7-amino-N-[(6S)-2-[(3S,4S)-3-acetamido-4-methoxypyrrolidin-1-yl]-5,6,7,8-tetrahydroquinolin-6-yl]-3-methylthieno[2,3-b]pyrazine-6-carboxamide]: the 50% inhibitory concentration (IC50) is over 2000 nM.

On to `Cc1ccc2c(N)c(C(=O)N[C@H]3CCc4nc(N5C[C@H](N)[C@H](OC(C)C)C5)ccc4C3)sc2n1` [Example 321, 3-amino-N-[(6S)-2-[(3S,4R)-3-amino-4-(propan-2-yloxy)pyrrolidin-1-yl]-5,6,7,8-tetrahydroquinolin-6-yl]-6-methylthieno[2,3-b]pyridine-2-carboxamide], for which the IC50 was over 2000 nM.

Turning to `COC[C@@H]1CN(c2nc3c(cc2F)C[C@H](NC(=O)c2sc4nc(C)ccc4c2N)CC3)C[C@@H]1N` (single isomer, unassigned) [Example 302], the IC50 was in the range of 200 to 2000 nM.

For `Cc1ccc2c(N)c(C(=O)N[C@H]3COc4cc(N5CC6(C5)OCC[C@H]6N)ccc4C3)sc2n1` [Example 337, 3-amino-N-[(3R)-7-[(8R)-8-amino-5-oxa-2-azaspiro[3.4]octan-2-yl]-3,4-dihydro-2H-1-benzopyran-3-yl]-6-methylthieno[2,3-b]pyridine-2-carboxamide], the IC50 lay in the range of 200 to 2000 nM.

In the case of `Cc1ccc2c(N)c(C(=O)N[C@H]3CCc4nc(N5C[C@H](OC(C)C)[C@@H](N)C5)ccc4C3)sc2n1` [Example 320], the IC50 was over 2000 nM.

As to `CCO[C@@H]1CN(c2ccc3c(c2)CC[C@H](NC(=O)c2sc4nc(C)ccc4c2N)C3)C[C@@H]1N` [Example 267, 3-amino-N-[(2S)-6-[(3S,4R)-3-amino-4-ethoxypyrrolidin-1-yl]-1,2,3,4-tetrahydronaphthalen-2-yl]-6-methylthieno[2,3-b]pyridine-2-carboxamide], the IC50 is 200 to 2000 nM.

As for `COC[C@@]1(C)CN(c2ccc3c(n2)CC[C@H](NC(=O)c2sc4nc(C)ccc4c2N)C3)CC1N` (stereo in doubt) [Example 343, 3-amino-N-[(6S)-2-[(3S,4S)-4-amino-3-(methoxymethyl)-3-methylpyrrolidin-1-yl]-5,6,7,8-tetrahydroquinolin-6-yl]-6-methylthieno[2,3-b]pyridine-2-carboxamide], the IC50 fell in the range of 200 to 2000 nM.

Take `CO[C@]1(C)CN(c2ccc3c(c2)OC[C@H](NC(=O)c2sc4nc(C)ccc4c2N)C3)C[C@H]1N` [Example 282, 3-amino-N-[(3R)-7-[(3R,4R)-4-amino-3-methoxy-3-methylpyrrolidin-1-yl]-3,4-dihydro-2H-1-benzopyran-3-yl]-6-methylthieno[2,3-b]pyridine-2-carboxamide]: the IC50 fell in the range of 200 to 2000 nM.

In the case of `CO[C@H]1[C@@H](C)N(c2ccc3c(c2)OC[C@H](NC(=O)c2sc4nc(C)ccc4c2N)C3)C[C@@H]1N` [Example 336, 3-amino-N-[(3R)-7-[(2R,3R,4S)-4-amino-3-methoxy-2-methylpyrrolidin-1-yl]-3,4-dihydro-2H-1-benzopyran-3-yl]-6-methylthieno[2,3-b]pyridine-2-carboxamide], the IC50 was 200 to 2000 nM.

On to `CO[C@]12CNC[C@H]1CN(c1ccc3c(c1)OC[C@H](NC(=O)c1sc4nc(C)ccc4c1N)C3)C2` [Example 291, N-[(3R)-7-[(3aS,6aS)-3a-methoxy-octahydropyrrolo[3,4-c]pyrrol-2-yl]-3,4-dihydro-2H-1-benzopyran-3-yl]-3-amino-6-methylthieno[2,3-b]pyridine-2-carboxamide], for which the IC50 lay in the range of 200 to 2000 nM.

Turning to `CO[C@]1(C)CN(c2ccc3c(n2)CC[C@H](NC(=O)c2sc4nc(C)cnc4c2N)C3)C[C@H]1N` [Example 280, 7-amino-N-[(6S)-2-[(3R,4R)-4-amino-3-methoxy-3-methylpyrrolidin-1-yl]-5,6,7,8-tetrahydroquinolin-6-yl]-3-methylthieno[2,3-b]pyrazine-6-carboxamide], the IC50 is over 2000 nM.

In the case of `CN[C@@H]1CN(c2ccc3c(n2)CC[C@H](NC(=O)c2sc4nc(C)ccc4c2N)C3)C[C@]1(C)O` [Example 332, 3-amino-N-[(6S)-2-[(3S,4R)-3-hydroxy-3-methyl-4-(methylamino)pyrrolidin-1-yl]-5,6,7,8-tetrahydroquinolin-6-yl]-6-methylthieno[2,3-b]pyridine-2-carboxamide], the IC50 was over 2000 nM.

Take `Cc1ccc2c(N)c(C(=O)N[C@H]3COc4cc(N5C[C@@H](N)[C@@]6(CCO6)C5)ccc4C3)sc2n1` [Example 339, 3-amino-N-[(3R)-7-[(4R,8R)-8-amino-1-oxa-6-azaspiro[3.4]octan-6-yl]-3,4-dihydro-2H-1-benzopyran-3-yl]-6-methylthieno[2,3-b]pyridine-2-carboxamide]: the IC50 was in the range of 200 to 2000 nM.

On to `Cc1ccc2c(N)c(C(=O)N[C@H]3COc4cc(N5C[C@H](C(F)F)[C@@H](N)C5)ccc4C3)sc2n1` [Example 294, 3-amino-N-[(3R)-7-[(3R,4S)-3-amino-4-(difluoromethyl)pyrrolidin-1-yl]-3,4-dihydro-2H-1-benzopyran-3-yl]-6-methylthieno[2,3-b]pyridine-2-carboxamide], for which the IC50 lay in the range of 50 to 200 nM.

In the case of `Cc1ccc2c(N)c(C(=O)N[C@H]3COc4cc(N5C[C@@H]6CCN[C@@H]6C5)ccc4C3)sc2n1` [Example 304, N-[(3R)-7-[(3aS,6aS)-octahydropyrrolo[3,4-b]pyrrol-5-yl]-3,4-dihydro-2H-1-benzopyran-3-yl]-3-amino-6-methylthieno[2,3-b]pyridine-2-carboxamide], the IC50 lay within 200 to 2000 nM.

Regarding `Cc1ccc2c(N)c(C(=O)N[C@H]3CCc4nc(N5C[C@@H](N)[C@@H](OC(C)C)C5)ccc4C3)sc2n1` [Example 322, 3-amino-N-[(6S)-2-[(3R,4S)-3-amino-4-(propan-2-yloxy)pyrrolidin-1-yl]-5,6,7,8-tetrahydroquinolin-6-yl]-6-methylthieno[2,3-b]pyridine-2-carboxamide], the IC50 is over 2000 nM.

By IC50 is commonly meant the concentration at which inhibition is half-maximal.

These data come from patent US11524966B1 (Valo Early Discovery, Inc., priority 2017, dated 2022).
